Results: article PMC11984586, “A novel spider toxin as a selective antagonist of the Kv1 subfamily of voltage-gated potassium channels through gating modulation” (The Journal of Biological Chemistry, 2025)
Where two headings read alike, the source gives them in different places. Bridge positions count the residues as written; N and C are the ends. Peptide text beside a SMILES is read from it.

Key:
Format in all cases: cell-based
hKv1.1 = biological target: T1, hKv1.1 (Homo sapiens, UniProt Q09470); test: Whole-cell patch clamp, Kv1.1 ionic current in CHO-K1 cells
T1 construct: expressed in transfected cells; host or cells: CHO-K1
Method: (§1) The cDNA of hKv1.1, hKv1.2, hKv1.3, rKv1.4, hKv1.5, mKv1.6, and hKv1.7 were subcloned into mammalian expression vectors pcDNA3.1 or pCMV-blank vectors, as well as other plasmids described previously ([35]). Channel mutants were generated by site-directed mutations. Briefly, the parental channel plasmid was amplified using a pair of oppositely directed primers harboring the designed mutation site, with KOD Fx (TOYOBO Co, Ltd). The resulting PCR mix was treated with FastDigest DpnI (Thermo Fisher Scientific) to remove the methylated template. Ten microliters of the digested product was then used to transform 100 μl E. coli DH5α competent cells. Transformants were randomly picked and sequenced to confirm the presence of the intended mutation.
(§2) CHO-K1 cells were selected for expressing Kv channels due to their lack of endogenous Kv channels, while HEK293 or ND7/23 cells were used for Nav and Cav channel expression. CHO-K1 cells were cultured in a Dulbecco's modified Eagle's medium/Ham's F-12 nutrient mixture (DMEM-F12) medium, and HEK293T and ND7/23 cells in DMEM medium, all supplemented with 10% fetal bovine serum and 1% penicillin-streptomycin (all from Gibco, Thermo Fisher Scientific, Inc) under standard conditions (37 °C, 5% CO2, and saturated humidity). These cell lines were purchased from Stem Cell Bank, Chinese Academy of Sciences. Channel plasmids were cotransfected with pEGFP-N1 (encoding GFP) into the respective cells using lipofectamine 2000, following the manufacturer's instructions (Invitrogen, Thermo Fisher Scientific, Inc.). Nav1.9-GFP plasmid was transfected into ND7/23 using the X-tremeGENE HP DNA Transfection Reagent (Roche). After 4 to 6 h transfection, cells were seeded onto poly-lysine–coated coverslips, and 24 to 36 h later, transfected cells were ready for patch-clamp analysis.
(§3) Patch clamp experiments were conducted using an electrophysiology platform comprising a MultiClamp 700B amplifier and an Axon Digidata 1550 AD/DA convertor (Axon Instruments). Data acquisition was performed with pClamp 10.5 software (Axon Instruments). All experiments were performed at room temperature.
For Kv current recordings, the bath solution contained (in mM) the following: 140 NaCl, 5 KCl, 1 MgCl2, 2 CaCl2, 10 glucose, and 10 Hepes (pH 7.3, adjusted with NaOH), and the pipette solution contained (in mM) the following: 140 KCl, 2.5 MgCl2, 11 EGTA, and 10 Hepes (pH 7.3, adjusted with KOH). Series resistance was maintained below 10 MΩ and compensated to 80%. […] Whole cell conductance (G) at each depolarizing voltage (V) was determined using the equation: G = I/(V−Vrev), where I is the current amplitude, and Vrev is the reversal potential. […] The steady-state fast inactivation of Kv1.3 was measured using a two-pulses protocol. […]

[1] = biological target: T2, Kv1.7/I386C mutant (Kv1.7∗) (Homo sapiens, UniProt Q96RP8, I386C); test: Gating-current recording, Kv1.7* in HEK293T cells; conditions: for inhibition at 10 µM: HEK-293T
T2 construct: expressed in transfected cells; host or cells: HEK293T
Method: as §1, §2, §3
Gating currents were recorded by transfecting HEK293T cells with a saturating dose of plasmid to ensure maximal channel expression. The Kv1.3/I472C and Kv1.7/I386C mutants were used to record the IgOFF, minimizing slow voltage sensor return as reported in previous studies ([28]). The bath solution contained (in mM) the following: 140 NMDG, 50 Hepes, 2 CaCl2, 2 MgCl2, 0.1 EDTA, and 0.01 CsCl (pH 7.3, adjusted with methanesulfonic acid), and the pipette solution contained (in mM) the following: 140 NMDG, 1 NMDG-Cl, 50 HF, 5 EGTA, and 50 Hepes (pH 7.3, adjusted with methanesulfonic acid). Gating charge movement (Q) was determined by integrating the area under the IgON and IgOFF traces, representing voltage sensor movement in response to depolarizing pulses. The data were normalized and plotted against voltage to generate Q-V curves, which were fitted using a Boltzmann function to estimate the voltage dependence of charge movement.

Kv1.7/A256T = biological target: T3, Kv1.7/A256T (Homo sapiens, UniProt Q96RP8, A256T); test: Whole-cell patch clamp, Kv1.7 point mutant
T3 construct: expressed in transfected cells; host or cells: CHO-K1
From the text: This observation prompted further exploration of the potential function of the homologous residue in the Kv1.7 channel, where the corresponding site is occupied by an alanine.
The cDNA of hKv1.1, hKv1.2, hKv1.3, rKv1.4, hKv1.5, mKv1.6, and hKv1.7 were subcloned into mammalian expression vectors pcDNA3.1 or pCMV-blank vectors, as well as other plasmids described previously ([35]). Channel mutants were generated by site-directed mutations. Briefly, the parental channel plasmid was amplified using a pair of oppositely directed primers harboring the designed mutation site, with KOD Fx (TOYOBO Co, Ltd). […]
CHO-K1 cells were selected for expressing Kv channels due to their lack of endogenous Kv channels, while HEK293 or ND7/23 cells were used for Nav and Cav channel expression. […] After 4 to 6 h transfection, cells were seeded onto poly-lysine–coated coverslips, and 24 to 36 h later, transfected cells were ready for patch-clamp analysis. […]
For Kv current recordings, the bath solution contained (in mM) the following: 140 NaCl, 5 KCl, 1 MgCl2, 2 CaCl2, 10 glucose, and 10 Hepes (pH 7.3, adjusted with NaOH), and the pipette solution contained (in mM) the following: 140 KCl, 2.5 MgCl2, 11 EGTA, and 10 Hepes (pH 7.3, adjusted with KOH). […] The steady-state fast inactivation of Kv1.3 was measured using a two-pulses protocol. […]

T1 sequence (Q09470 whole entry): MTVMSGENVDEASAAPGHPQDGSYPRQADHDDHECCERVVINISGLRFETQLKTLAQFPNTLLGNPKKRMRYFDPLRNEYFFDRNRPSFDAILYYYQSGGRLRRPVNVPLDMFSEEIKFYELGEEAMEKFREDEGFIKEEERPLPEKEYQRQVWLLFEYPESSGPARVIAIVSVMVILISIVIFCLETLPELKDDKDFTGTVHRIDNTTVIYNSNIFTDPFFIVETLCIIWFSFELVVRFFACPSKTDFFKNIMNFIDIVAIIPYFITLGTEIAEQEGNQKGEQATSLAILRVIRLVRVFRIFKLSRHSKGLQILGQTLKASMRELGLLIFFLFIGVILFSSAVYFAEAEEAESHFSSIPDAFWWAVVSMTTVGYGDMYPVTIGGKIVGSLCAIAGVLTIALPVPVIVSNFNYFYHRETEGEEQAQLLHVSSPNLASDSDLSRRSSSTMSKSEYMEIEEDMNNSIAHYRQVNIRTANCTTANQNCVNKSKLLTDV
T2 sequence (Q96RP8 whole entry I386C): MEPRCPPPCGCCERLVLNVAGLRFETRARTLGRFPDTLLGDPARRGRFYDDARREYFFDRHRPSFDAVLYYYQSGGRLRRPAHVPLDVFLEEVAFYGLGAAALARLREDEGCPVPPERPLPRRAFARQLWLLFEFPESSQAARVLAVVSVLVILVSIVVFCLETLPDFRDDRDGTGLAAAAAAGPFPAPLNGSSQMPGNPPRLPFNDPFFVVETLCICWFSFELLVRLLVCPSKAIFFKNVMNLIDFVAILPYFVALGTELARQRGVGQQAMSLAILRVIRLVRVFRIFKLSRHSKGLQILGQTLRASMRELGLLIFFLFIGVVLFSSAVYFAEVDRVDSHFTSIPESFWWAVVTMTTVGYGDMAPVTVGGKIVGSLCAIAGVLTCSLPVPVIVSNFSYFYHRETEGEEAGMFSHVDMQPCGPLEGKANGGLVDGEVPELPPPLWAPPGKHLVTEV
T3 sequence (Q96RP8 whole entry A256T): as the sequence (Q96RP8 whole entry I386C) above, with A256T, C386I counted along it

Structure (SMILES): CC[C@H](C)[C@@H]1NC(=O)[C@H](Cc2ccc(O)cc2)NC(=O)[C@H](CCC(N)=O)NC(=O)[C@@H]2CCCN2C(=O)[C@@H]2CSSC[C@H](NC(=O)[C@H](C)NC(=O)[C@H](CO)NC(=O)[C@H](CCC(=O)O)NC(=O)[C@H](CCC(=O)O)NC(=O)[C@@H](N)[C@@H](C)O)C(=O)NCC(=O)NCC(=O)N[C@@H](Cc3ccccc3)C(=O)N[C@@H](CC(N)=O)C(=O)N[C@@H](C)C(=O)N[C@@H](CCCNC(=N)N)C(=O)N[C@H]3CSSC[C@H](NC1=O)C(=O)N[C@@H](CCCCN)C(=O)NCC(=O)N[C@@H](Cc1c[nH]c4ccccc14)C(=O)N[C@@H](CCCNC(=N)N)C(=O)N[C@@H]([C@@H](C)O)C(=O)N[C@@H](CCCCN)C(=O)N[C@@H](CCCNC(=N)N)C(=O)N[C@H](C(=O)N[C@@H](CC(C)C)C(=O)N[C@@H](CC(N)=O)C(=O)N1CCC[C@H]1C(=O)O)CSSC[C@H](NC(=O)[C@H](CCCCN)NC(=O)[C@H](Cc1c[nH]cn1)NC(=O)[C@H](CC(C)C)NC(=O)[C@@H]1CCCN1C3=O)C(=O)N2 [MrVIII] (H-TEESACGGFNARCPLHKCCPQYICKGWRTKRCLNP-OH; disulfide 6-19, 13-24, 18-32; N-terminus and C-terminus assumed)
- inhi%(495 ms), Kv1.1 current (hKv1.1; 10 μM (saturating), current at 495 ms, +30 mV, mean ± SD, SD): 23.9 ± 18.5%
- inhibitory effect on Kv1.1 current at 495 ms once depolarizing voltage exceeded +40 mV (hKv1.1; 10 μM MrVIII, I-V protocol): negligible
- inhibition at 10 µM (hKv1.1; CHO-K1, 10 μM MrVIII, I-V protocol, holding −80 mV, mean ± SD, n = 5–7, SD, read-out: inhibition of Kv1.1 current at 50 ms at +100 mV): 11.6 ± 7.9%
- IC50 (hKv1.1; current measured at 50 ms of a 500 ms depolarization to +30 mV, mean ± SD, n = 4–7, SD): 50.9 ± 21.7 nM
- Va of Q-V curve of Kv1.7∗ after toxin ([1]; 500 nM MrVIII, before toxin −6.4 ± 2.9 mV, mean ± SD, n = 5, SD): −4.3 ± 3.8 mV
- effect on IgON of Kv1.7∗ ([1]; 10 μM MrVIII, 500 ms depolarization): completely inhibited
- IC50 ([1]; +30 mV for 50 ms, held at −100 mV, HEK293T, mean ± SD, n = 11, SD, read-out: IC50, inhibition of IgON current of Kv1.7∗): 214 ± 91.8 nM
- inhibition at 10 µM ([1]; 10 μM MrVIII, 50 ms depolarization at +30 mV, mean ± SD, n = 11, SD, read-out: inhibition of IgOFF of Kv1.7∗): ~74.1%
- inhibition at 10 µM ([1]; 10 μM MrVIII, 500 ms depolarization, mean ± SD, n = 5, SD, read-out: inhibition rate of IgOFF of Kv1.7∗): 13.1 ± 5.5%
- IC50 (Kv1.7/A256T; +30 mV, mean ± SD, n = 6, SD, read-out: IC50, Kv1.7/A256T current (full inhibition)): 138 ± 50.3 nM
- potency on Kv1.7/A256T weaker than on the Kv1.3 channel (Kv1.7/A256T; ratio of IC50 values): approximately 28 fold
